These compounds were tested on HT-29 cells (assay: HT-29 cell necrosis/necroptosis inhibition (TNF-α + SMAC mimetic + zVAD-FMK; CellTiter-Glo cell viability)). Conditions: Homo sapiens, HT-29, 20 h, read-out: EC50 (Cell activity; Necrosis/Necroptosis Inhibitory Activity, Compounds 1-142).
Format: cell-based
In short: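 HT-29 cells (~5,000/well) were switched to FBS-free McCOY's 5A holding TNF-α (10 ng/ml), SMAC mimetic (6 μM) and zVAD-FMK (10 μM), then dosed with a 10-point 1:3 series for 20 h at 37 °C. CellTiter-Glo luminescence gave viability; geometric mean EC50 from duplicates.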
For `Cc1nn(C[C@H]2CO2)c(C)c1-c1nc(N2CCN(C(=O)N3N=CC[C@H]3c3cc(F)cc(C#N)c3)CC2)ncc1F` [Compound 134, 3-((S)-1-(4-(4-(3,5-dimethyl-1-(((S)-oxiran-2-yl)methyl)-1H-pyrazol-4-yl)-5-fluoropyrimidin-2-yl)piperazine-1-carbonyl)-4,5-dihydro-1H-pyrazol-5-yl)-5-fluorobenzonitrile], the EC50 was 0.1 to 100 nM.

Same assay, conditions: Homo sapiens, HT-29, 20 h, read-out: EC50 (Cell activity; Necrosis/Necroptosis Inhibitory Activity, Compounds 143-323)
For `Cc1nc(C(=O)N2CCC2)nn1-c1nc(N2CCN(C(=O)N3N=CC[C@H]3c3cc(F)cc(C#N)c3)CC2)ncc1F` [Compound 247, (S)-3-(1-(4-(4-(3-(azetidine-1-carbonyl)-5-methyl-1H-1,2,4-triazol-1-yl)-5-fluoropyrimidin-2-yl)piperazine-1-carbonyl)-4,5-dihydro-1H-pyrazol-5-yl)-5-fluorobenzonitrile], the EC50 was 0.1 to 100 nM.

Same assay, conditions: Homo sapiens; HT-29 cells, TNF-α 10 ng/ml + SMAC mimetic 6 μM + zVAD-FMK 10 μM, 20 hours; geometric mean, 10 points in duplicate; read-out: EC50 (Cell activity; Necrosis/Necroptosis Inhibitory Activity, Compounds 1-142)
With `Cc1nn(CC(N)=O)c(C)c1-c1nc(N2CCN(C(=O)N3N=CC[C@H]3c3cc(F)cc(C#N)c3)CC2)ncc1F` [Compound 123, (S)-2-(4-(2-(4-(5-(3-cyano-5-fluorophenyl)-4,5-dihydro-1H-pyrazole-1-carbonyl)piperazin-1-yl)-5-fluoropyrimidin-4-yl)-3,5-dimethyl-1H-pyrazol-1-yl)acetamide] the EC50 was 0.1 to 100 nM. `O=C(N1CCN(c2nccc(-c3nnn[nH]3)n2)CC1)N1N=CC[C@H]1c1cc(F)cc(F)c1` [Compound 4, (S)-(4-(4-(1H-tetrazol-5-yl)pyrimidin-2-yl)piperazin-1-yl)(5-(3,5-difluorophenyl)-4,5-dihydro-1H-pyrazol-1-yl)methanone] gave an EC50 of 0.1 to 100 nM. `N#Cc1cc(F)cc([C@@H]2CC=NN2C(=O)N2CCN(c3ncc(F)c(-c4cn[nH]c4)n3)CC2)c1` [Compound 54, (S)-3-fluoro-5-(1-(4-(5-fluoro-4-(1H-pyrazol-4-yl)pyrimidinyl)piperazine-1-carbonyl)-4,5-dihydro-1H-pyrazol-5-yl)benzonitrile] gave an EC50 of 0.1 to 100 nM. For `N#Cc1cccc([C@@H]2CC=NN2C(=O)N2CCN(c3nccc(-n4cc(C(N)=O)cn4)n3)CC2)c1` [Compound 106, (S)-1-(2-(4-(5-(3-cyanophenyl)-4,5-dihydro-1H-pyrazole-1-carbonyl)piperazin-1-yl)pyrimidin-4-yl)-1H-pyrazole-4-carboxamide], the EC50 was 0.1 to 100 nM. For `N#Cc1cc(F)cc([C@@H]2CC=NN2C(=O)N2CCN(c3ncc(F)c(-n4cnc(C#N)n4)n3)CC2)c1` [Compound 125, (S)-1-(2-(4-(5-(3-cyano-5-fluorophenyl)-4,5-dihydro-1H-pyrazole-1-carbonyl)piperazin-1-yl)-5-fluoropyrimidin-4-yl)-1H-1,2,4-triazole-3-carbonitrile], the EC50 was 0.1 to 100 nM.

Same assay, conditions: Homo sapiens; HT-29 cells, TNF-α 10 ng/ml + SMAC mimetic 6 μM + zVAD-FMK 10 μM, 20 hours; geometric mean, 10 points in duplicate; read-out: EC50 (Cell activity; Necrosis/Necroptosis Inhibitory Activity, Compounds 143-323)
`Cc1nc(C)n(-c2nc(N3C[C@@H](C)N(C(=O)N4N=CC[C@H]4c4cc(F)cc(C#N)c4)[C@@H](C)C3)ncc2F)n1` [Compound 146, 3-((S)-1-((2S,6R)-4-(4-(3,5-dimethyl-1H-1,2,4-triazol-1-yl)-5-fluoropyrimidin-2-yl)-2,6-dimethylpiperazine-1-carbonyl)-4,5-dihydro-1H-pyrazol-5-yl)-5-fluorobenzonitrile] was tested, and the EC50 was 1000 to 10000 nM. Work on `Cc1nc(CO)nn1-c1nc(N2CCN(C(=O)N3N=CC[C@H]3c3cc(F)cc(F)c3)CC2)ncc1F` [Compound 251, (S)-(5-(3,5-difluorophenyl)-4,5-dihydro-1H-pyrazol-1-yl)(4-(5-fluoro-4-(3-(hydroxymethyl)-5-methyl-1H-1,2,4-triazol-1-yl)pyrimidin-2-yl)piperazinyl)methanone] yielded an EC50 of 0.1 to 100 nM. For `Cc1cnn(C)c1-c1ncc(F)c(N2CCN(C(=O)N3N=CCC3c3cscn3)CC2)n1` (centres unmarked) [Compound 160, (4-(2-(1,4-dimethyl-1H-pyrazol-5-yl)-5-fluoropyrimidin-4-yl)piperazin-1-yl)(5-(thiazol-4-yl)-4,5-dihydro-1H-pyrazol-1-yl)methanone], the EC50 was 0.1 to 100 nM. In the case of `Cn1cnc(-c2ccc(F)c(N3CCN(C(=O)N4N=CC[C@H]4c4cc(F)cc(C#N)c4)CC3)n2)n1` [Compound 177, (S)-3-fluoro-5-(1-(4-(3-fluoro-6-(1-methyl-1H-1,2,4-triazol-3-yl)pyridin-2-yl)piperazine-1-carbonyl)-4,5-dihydro-1H-pyrazol-5-yl)benzonitrile], the EC50 is reported as 100 to 1000 nM. `Cn1nc(C(N)=O)nc1-c1nc(N2CCN(C(=O)N3N=CCC3c3cc(F)cc(F)c3)CC2)ncc1F` (centres unmarked) [Compound 225, 5-(2-(4-(5-(3,5-difluorophenyl)-4,5-dihydro-1H-pyrazole-1-carbonyl)piperazin-1-yl)-5-fluoropyrimidin-4-yl)-1-methyl-1H-1,2,4-triazole-3-carboxamide] gave an EC50 of 0.1 to 100 nM. With `Cc1nn(-c2nc(N3CCN(C(=O)N4N=CC[C@H]4c4cc(F)cc(C#N)c4)CC3)ncc2F)c(C)c1C#N` [Compound 275, (S)-1-(2-(4-(5-(3-cyano-5-fluorophenyl)-4,5-dihydro-1H-pyrazole-1-carbonyl)piperazin-1-yl)-5-fluoropyrimidin-4-yl)-3,5-dimethyl-1H-pyrazole-4-carbonitrile] the EC50 was 0.1 to 100 nM. `O=C(N1CCN(c2ncc(F)c(-n3nccc3C(F)(F)F)n2)CC1)N1N=CC[C@H]1c1cccc(F)c1` [Compound 302, (S)-(4-(5-fluoro-4-(5-(trifluoromethyl)-1H-pyrazol-1-yl)pyrimidin-2-yl)piperazin-1-yl)(5-(3-fluorophenyl)-4,5-dihydro-1H-pyrazol-1-yl)methanone] showed an EC50 of 0.1 to 100 nM.
